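Grown in 96-well plates, cells were treated for 48 hours with each compound at five concentrations. Insufficient inhibition: endpoint recorded as highest concentration tested. The concentration for full growth arrest is given as TGI.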
system: CAKI-1 renal; experiment: DTP human tumour cell line panel, 48 h

Row | Compound | TGI [µM]
1 | CCOc1cc2c(cc1O)C(N)C[C@@H]1[C@@H]2CC[C@]2(C)[C@@H](O)CC[C@@H]12 (stereo not given in full) | > 100
2 | Cc1ccc(S(=O)(=O)Nn2c(O)c(C#N)c(-c3ccc([N+](=O)[O-])cc3)c(C#N)c2=O)cc1 | > 100
3 | CC(C)[Si](OCC1CC(C#N)OC(C)(C)O1)(C(C)C)C(C)C (stereo not given) | 69.5
4 | CC(C)C(NC(=O)C(Cc1ccccc1)NC(=O)[C@H]1CCC[C@H]1NC(=O)C(Cc1ccc(OC(C)(C)C)cc1)NC(=O)OC(C)(C)C)C(N)=O (stereo not given in full) | > 100
5 | N#C/C(=C\c1ccc2[nH]ccc2c1)C(=O)c1ccc(O)c(O)c1 | > 100
6 | CC(=O)Nc1ccc(-c2nnc(SCC(=O)Nc3ccc(Cl)cc3)o2)cc1 | 33.7
7 | COc1ccc2c([nH]c3c(O)c(-c4c(C)cc5c([nH]c6c(CC=C(C)C)c(OC)ccc65)c4O)c(C)cc32)c1CC=C(C)C | > 100
8 | COc1ccc(CNc2nc3ccccc3nc2C(=O)O)cc1 | > 100
9 | COc1ccc(-n2cnc3c(NC(Cc4ccccc4)C(=O)O)ncnc32)cc1 (stereo not given) | > 100
10 | CC(=O)OCC1OC(n2c(-c3ccccc3)c(N=Nc3ccc(C)cc3)c(C)c(C#N)c2=S)C(OC(C)=O)C(OC(C)=O)C1OC(C)=O (stereo not given) | 64.5
11 | CC(C)(C)C1=C(Br)C(OC(=O)C(F)(F)F)(C(C)(C)C)OP1(=O)c1ccccc1 (stereo not given) | 4.97
12 | NN/C(=N\S(=O)(=O)c1ccc(S(=O)(=O)c2ccccc2)s1)Nc1ccc(Cl)cc1 | > 100
13 | CC(C)(C)[Si](C)(C)OC[C@H](/C=C\CCCC(=O)O)NC1(c2ccccc2)c2ccccc2-c2ccccc21 | 93.9
14 | CCOC(=O)C(C/C=C/CO)N(C)C(=O)OC(C)(C)C (stereo not given) | > 100
15 | Cc1csc(-n2c(C)nc3cc(Cl)ccc3c2=O)n1 | > 100

system: UO-31 renal; experiment: DTP human tumour cell line panel, 48 h

Row | Compound | TGI [µM]
16 | COCCN1C(=O)C2c3[nH]c4ccccc4c3C3CCC(C(C)(C)C)CC3C2C1=O (stereo not given) | 27.2
17 | O=C(O)c1ccc(N/C(=C(/C(Cl)=C(Cl)Cl)[N+](=O)[O-])n2nnc3ccccc32)cc1 | > 100
18 | O=c1c2ccccc2nc(-c2ccccc2)n1NC(=S)Nc1cccc(Cl)c1 | > 100
19 | CCn1c2ccccc2c2cc(Nc3cc(C)[nH]c(=O)n3)ccc21 | > 100
20 | C(#Cc1ccccc1)SC1=C(c2ccccc2)S/C(=C(\SC#Cc2ccccc2)c2ccccc2)S1 | > 100
21 | COC(=O)c1cc(/C=C\c2cc(OC)ccc2OC)ccc1OC | 75.3
22 | Cc1ccc(S(=NS(=O)(=O)c2ccc(C)cc2)c2ccc(C)cc2)cc1 | > 100
23 | CCOC(=O)C(C(=O)COC(C)(C)C)[C@@H]1C=C[C@H](OC(C)=O)C1 (stereo not given in full) | > 100
24 | CCOC(=O)CC(NC(=O)c1ccc(N=NN(C)C)cc1)C(=O)OCC (stereo not given) | > 100
25 | CN(C)CN(C)c1nc(N(C)C)nc(N(C)CN(C)C)n1 | > 100
26 | O=C(Cc1ccccc1)NN1C(=O)/C(=C\c2ccccc2O)SC1=Nc1ccccc1 | > 100
27 | O=c1[nH]nc(-c2ccccc2)n1-n1cnnc1 | > 100
28 | CCCCCCCCCCCCOP(=O)(O)OP(=O)(O)OCC1OC(n2cc(C)c(=O)[nH]c2=O)CC1O (stereo not given) | > 100
29 | O=C1c2cc([N+](=O)[O-])sc2C(=O)c2c([N+](=O)[O-])csc21 | 3.37
30 | CCOc1cc2c(cc1O)C(N)C[C@@H]1[C@@H]2CC[C@]2(C)[C@@H](O)CC[C@@H]12 (stereo not given in full) | > 100
31 | CC(C)[Si](OCC1CC(C#N)OC(C)(C)O1)(C(C)C)C(C)C (stereo not given) | 40.9
32 | CC(C)C(NC(=O)C(Cc1ccccc1)NC(=O)[C@H]1CCC[C@H]1NC(=O)C(Cc1ccc(OC(C)(C)C)cc1)NC(=O)OC(C)(C)C)C(N)=O (stereo not given in full) | > 100
33 | N#C/C(=C\c1ccc2[nH]ccc2c1)C(=O)c1ccc(O)c(O)c1 | > 100
34 | CC(=O)Nc1ccc(-c2nnc(SCC(=O)Nc3ccc(Cl)cc3)o2)cc1 | 33.6
35 | COc1ccc2c([nH]c3c(O)c(-c4c(C)cc5c([nH]c6c(CC=C(C)C)c(OC)ccc65)c4O)c(C)cc32)c1CC=C(C)C | > 100
36 | COc1ccc(CNc2nc3ccccc3nc2C(=O)O)cc1 | > 100
37 | COc1ccc(-n2cnc3c(NC(Cc4ccccc4)C(=O)O)ncnc32)cc1 (stereo not given) | > 100
38 | CC(C)(C)C1=C(Br)C(OC(=O)C(F)(F)F)(C(C)(C)C)OP1(=O)c1ccccc1 (stereo not given) | > 100
39 | NN/C(=N\S(=O)(=O)c1ccc(S(=O)(=O)c2ccccc2)s1)Nc1ccc(Cl)cc1 | > 100
40 | CC(C)(C)[Si](C)(C)OC[C@H](/C=C\CCCC(=O)O)NC1(c2ccccc2)c2ccccc2-c2ccccc21 | 34.4
41 | CCOC(=O)C(C/C=C/CO)N(C)C(=O)OC(C)(C)C (stereo not given) | > 100
42 | Cc1csc(-n2c(C)nc3cc(Cl)ccc3c2=O)n1 | > 100

system: OVCAR-5 ovarian; experiment: DTP human tumour cell line panel, 48 h

Row | Compound | TGI [µM]
43 | O=C(O)c1ccc(N/C(=C(/C(Cl)=C(Cl)Cl)[N+](=O)[O-])n2nnc3ccccc32)cc1 | > 100
44 | O=c1c2ccccc2nc(-c2ccccc2)n1NC(=S)Nc1cccc(Cl)c1 | > 100
45 | CCn1c2ccccc2c2cc(Nc3cc(C)[nH]c(=O)n3)ccc21 | > 100
46 | C(#Cc1ccccc1)SC1=C(c2ccccc2)S/C(=C(\SC#Cc2ccccc2)c2ccccc2)S1 | > 100
47 | COC(=O)c1cc(/C=C\c2cc(OC)ccc2OC)ccc1OC | > 100
48 | Cc1ccc(S(=NS(=O)(=O)c2ccc(C)cc2)c2ccc(C)cc2)cc1 | > 100
49 | CCOC(=O)C(C(=O)COC(C)(C)C)[C@@H]1C=C[C@H](OC(C)=O)C1 (stereo not given in full) | > 100
50 | CCOC(=O)CC(NC(=O)c1ccc(N=NN(C)C)cc1)C(=O)OCC (stereo not given) | > 100
51 | O=C(Cc1ccccc1)NN1C(=O)/C(=C\c2ccccc2O)SC1=Nc1ccccc1 | > 100
52 | O=c1[nH]nc(-c2ccccc2)n1-n1cnnc1 | > 100
53 | CCCCCCCCCCCCOP(=O)(O)OP(=O)(O)OCC1OC(n2cc(C)c(=O)[nH]c2=O)CC1O (stereo not given) | > 100
54 | O=C1c2cc([N+](=O)[O-])sc2C(=O)c2c([N+](=O)[O-])csc21 | 2.95
55 | CCOc1cc2c(cc1O)C(N)C[C@@H]1[C@@H]2CC[C@]2(C)[C@@H](O)CC[C@@H]12 (stereo not given in full) | > 100
